Experimental data as given in US9371331B2, “Modulators of methyl modifying enzymes, compositions and uses thereof” (Constellation Pharmaceuticals, Inc., priority 2012, dated 2016).
Like-named read-outs stand apart in the source and are kept apart here.

Experiments:
[1] = system: H3K27me3 mark in HeLa cells; assay: H3K27me3 MSD Hela Assay; format: cell-based; conditions: read-out: H3K27me3_MSD_HeLa_ (EC50)
Procedure: Trypsinized HeLa cells were counted and diluted in 10% DMEM (Life Technologies, Cat. #10569) to 5000 cells/75 μL. Seventy-five […] of cells were place in each well of a 96-well flat-bottomed plate and incubated at 37° C. for 4 hours. Twenty-five μL of test compound (at various concentrations) was added to the cells and incubation continued at 37° C. for 96 hours. Media was then removed and the cells rinsed once with ice cold PBS. Forty μL of ice-cold MSD Buffer AT (10 mM HEPES, pH 7.9, 5 mM MgCl2, 0.25M sucrose, Benzonase (1:10000), 1% Triton X-100 supplemented with fresh 1× Protease Inhibitor cocktail and 1 mM 4-(2-Aminoethyl)benzenesulfonyl fluoride hydrochloride (AEBSF)) was added to each well and the plates placed on ice for 30 minutes. Ten μL of 5M NaCl was then added to each well and incubation on ice continued for another 15 minutes. The material in each well was suspended pipetting up and down and then transferred to a new 96 well plate. The emptied wells were rinsed with 150 uL ice-cold 20 mM Tris pH 7.5, 1 mM EDTA, 1 mM EGTA, supplemented with fresh 1× Protease Inhibitor cocktail and 1 mM AEBSF (“NO salt NO detergent buffer) and transferred to the respective wells in the new plate. Three hundred μL of NO Salt NO detergent buffer was then added to each well of lysates and the plates frozen at −80° C.
On the same day, an appropriate number of MSD standard bind 96-well plates were coated with 30 μL/well of total H3 capture antibody (Millipore. Cat #MAB3422) at 1 μg/mL concentration in PBS. The antibody solution was evenly distributed first by tapping gently on the sides of the plates and then by shaking the plates for a few minutes at 1000 rpm. Antibody coated plates were stored at 4° C. overnight.
The next day the lysates are thawed to RT. The antibody coated MSD plates are washed 3× with TBS-T (Tris-buffered saline (Fisher Scientific, Cat #BP2471-1)+0.2% Tween-20). One-hundred fifty μL of 5% Blocker A in TBS-T is added to each well. The wells are covered and shaken on a shaker at RT for one hour. The Blocker A step is repeated a second time. After removing the blocker, 25 μL of cell lysate is transferred into each antibody coated well. The plates are shaken for 2 hours at RT, the lysate removed and the plates again washed with Blocker A in TBS-T. Twenty-five μL of appropriate freshly prepared antibody mix (including both primary and secondary antibodies) is added to each well and the plates shaken for 1 hour at RT.
Both H3 antibodies were obtained from Cell Signalling (Cat #s 4499 and 9733). The goat anti-rabbit antibody was obtained from Meso-Scale Discovery (Cat #R32AB-1).
The antibody mix was then removed and the wells washed with Blocker A. One hundred-fifty μL of freshly prepared 1×MSD Read Buffer (Meso-Scale Discovery; Cat #R927C-2) was then added to each well and the plates read on a MSD Sector 2400 Plate Reader.
Data was analyzed using Assay Assistant (Constellation Pharmaceuticals In-house product) and Activity Base (IDBS Ltd, Surrey, UK) template. Data files were imported to Assay Assistant and assay conditions were specified. A unique Analysis ID was created and the data files exported to Activity Base. An analysis template was created on Activity Base to measure dose-dependent inhibition of H3K27me3 mark and cell viability respectively. Readout of DMSO wells were used to normalize the data. Resulting curves were fitted using Activity base software Model 205 (IDBS Ltd. Surrey, UK). The data was checked for quality, validated and integrated in excel format using SARview (IDBS Ltd, Surrey, UK).

EZH2 (rPRC2) = EZH2 (rPRC2) (Homo sapiens, UniProt Q15910); assay: EZH2 assay: rPRC2, biotinylated oligonucleosomes, 3H SAM methyl transfer (FlashPlate scintillation); format: biochemical; conditions: biotinylated oligonucleosome substrate
Chain of EZH2 (rPRC2) (Q15910 whole entry): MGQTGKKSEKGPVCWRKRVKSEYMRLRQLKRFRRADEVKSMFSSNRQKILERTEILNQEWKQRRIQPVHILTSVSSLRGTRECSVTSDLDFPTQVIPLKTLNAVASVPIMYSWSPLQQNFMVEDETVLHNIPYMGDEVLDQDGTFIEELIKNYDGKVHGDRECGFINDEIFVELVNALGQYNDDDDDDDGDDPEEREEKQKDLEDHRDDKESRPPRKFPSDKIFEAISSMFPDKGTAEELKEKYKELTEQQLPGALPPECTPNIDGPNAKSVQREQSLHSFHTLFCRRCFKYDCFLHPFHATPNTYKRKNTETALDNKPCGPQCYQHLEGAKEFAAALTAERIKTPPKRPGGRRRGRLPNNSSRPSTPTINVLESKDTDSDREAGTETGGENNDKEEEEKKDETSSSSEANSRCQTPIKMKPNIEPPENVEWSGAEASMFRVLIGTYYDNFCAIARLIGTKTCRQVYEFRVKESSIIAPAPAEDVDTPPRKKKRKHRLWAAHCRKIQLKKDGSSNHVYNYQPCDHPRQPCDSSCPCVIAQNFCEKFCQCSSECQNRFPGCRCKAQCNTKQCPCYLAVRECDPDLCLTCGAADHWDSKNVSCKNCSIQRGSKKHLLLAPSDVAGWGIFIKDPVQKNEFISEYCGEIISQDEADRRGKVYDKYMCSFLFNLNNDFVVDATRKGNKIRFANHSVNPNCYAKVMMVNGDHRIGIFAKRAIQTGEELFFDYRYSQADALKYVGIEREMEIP
Chain of EZH2 (rPRC2) (O75530 whole entry partner): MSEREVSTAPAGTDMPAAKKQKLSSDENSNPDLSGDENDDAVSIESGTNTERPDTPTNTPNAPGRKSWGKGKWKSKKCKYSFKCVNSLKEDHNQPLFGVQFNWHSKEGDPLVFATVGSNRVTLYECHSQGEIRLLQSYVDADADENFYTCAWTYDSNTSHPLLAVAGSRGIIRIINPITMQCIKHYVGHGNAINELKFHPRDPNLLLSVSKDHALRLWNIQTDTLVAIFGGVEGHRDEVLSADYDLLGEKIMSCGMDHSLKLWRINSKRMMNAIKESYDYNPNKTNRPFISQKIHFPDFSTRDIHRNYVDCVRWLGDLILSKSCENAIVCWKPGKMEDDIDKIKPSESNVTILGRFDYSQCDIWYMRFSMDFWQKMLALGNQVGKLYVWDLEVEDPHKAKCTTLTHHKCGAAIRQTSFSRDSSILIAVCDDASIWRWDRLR
Chain of EZH2 (rPRC2) (Q15022 whole entry partner): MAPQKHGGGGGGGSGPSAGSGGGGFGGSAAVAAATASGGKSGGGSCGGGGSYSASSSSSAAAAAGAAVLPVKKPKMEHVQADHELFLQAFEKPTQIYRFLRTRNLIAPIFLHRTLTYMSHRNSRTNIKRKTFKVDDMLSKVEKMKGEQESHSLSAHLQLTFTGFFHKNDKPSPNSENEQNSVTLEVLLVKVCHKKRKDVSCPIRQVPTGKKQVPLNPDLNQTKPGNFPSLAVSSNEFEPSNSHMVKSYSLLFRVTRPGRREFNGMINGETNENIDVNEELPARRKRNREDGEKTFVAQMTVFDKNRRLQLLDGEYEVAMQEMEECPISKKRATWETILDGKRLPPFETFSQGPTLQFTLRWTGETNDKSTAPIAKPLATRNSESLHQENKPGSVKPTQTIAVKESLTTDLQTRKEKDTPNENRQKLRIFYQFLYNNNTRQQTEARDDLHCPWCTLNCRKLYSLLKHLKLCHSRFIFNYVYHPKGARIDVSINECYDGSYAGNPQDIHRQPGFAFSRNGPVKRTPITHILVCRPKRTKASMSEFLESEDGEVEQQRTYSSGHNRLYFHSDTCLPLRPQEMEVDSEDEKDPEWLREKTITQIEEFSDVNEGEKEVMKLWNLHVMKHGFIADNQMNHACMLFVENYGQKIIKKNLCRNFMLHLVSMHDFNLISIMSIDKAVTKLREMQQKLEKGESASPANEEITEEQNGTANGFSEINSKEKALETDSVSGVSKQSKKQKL

Y641N EZH2 = Y641N EZH2 (Homo sapiens, UniProt Q15910, Y641N); assay: Y641N EZH2 assay: as EZH2 assay, with reconstituted H3K27Me2 oligonucleosomes as substrate; format: biochemical
Chain of Y641N EZH2 (Q15910 whole entry Y641N): as the sequence (Q15910 whole entry) above, with Y641N counted along it
Chain of Y641N EZH2 (O75530 whole entry partner): as the sequence (O75530 whole entry partner) above
Chain of Y641N EZH2 (Q15022 whole entry partner): as the sequence (Q15022 whole entry partner) above

[2] = Homo sapiens, HeLa cells, MSD, 96 hours
[3] = wild-type EZH2 (rPRC2), read-out: EZH2 IC50
[4] = Y641N mutant EZH2, H3K27Me2 oligonucleosome substrate, read-out: Y641N EZH2 IC50
[5] = EZH2 IC50, wild-type EZH2 (rPRC2)
[6] = Y641N EZH2 IC50, Y641N mutant EZH2, H3K27Me2 oligonucleosome substrate

Row | Molecule | EC50 [1, 2] [µM] | IC50 (EZH2 (rPRC2); [3]) [µM] | IC50 (Y641N EZH2; [4]) [µM] | EC50 ([1]; Homo sapiens, HeLa, 96 h) [µM] | IC50 (EZH2 (rPRC2); [5]) [µM] | IC50 (Y641N EZH2; [6]) [µM] | EC50 ([1]; HeLa cells, MSD, 96 hours) [µM]
1 | Cc1cc(C)c(CNC(=O)c2c(C)n([C@H](C)c3ccccc3)c3nc(N4CCNCC4)ncc23)c(O)n1 [Compound 169, (R)-N-((2-hydroxy-4,6-dimethylpyridin-3-yl)methyl)-6-methyl-7-(1-phenylethyl)-2-(piperazin-1-yl)-7H-pyrrolo[2,3-d]pyrimidine-5-carboxamide] | > 10 | < 0.1 | 0.1 to 1 | – | – | – | –
2 | Cc1cc(C)c(CNC(=O)c2c(C)n(C(C)c3ccc(Cl)cc3)c3ccccc23)c(=O)[nH]1 (racemic) [Compound 170, (±)-1-(1-(4-chlorophenyl)ethyl)-N-((2-hydroxy-4,6-dimethylpyridin-3-yl)methyl)-2-methyl-1H-indole-3-carboxamide] | – | – | – | 2 to 10 | < 0.1 | 0.1 to 1 | –
3 | COc1cc(C)[nH]c(=O)c1CNC(=O)c1c(C)n(C(C)CS(C)(=O)=O)c2ccccc12 (single isomer, unassigned) [Compound 279, (R or S)-N-((4-methoxy-6-methyl-2-oxo-1,2-dihydropyridin-3-yl)methyl)-2-methyl-1-(1-(methylsulfonyl)propan-2-yl)-1H-indole-3-carboxamide] | – | – | – | 2 to 10 | < 0.1 | 0.1 to 1 | –
4 | COCC(C)n1c(C)c(C(=O)NCc2c(OC)cc(C)[nH]c2=O)c2cccnc21 (single isomer, unassigned) [Compound 256, (R or S)-N-((4-methoxy-6-methyl-2-oxo-1,2-dihydropyridin-3-yl)methyl)-1-(1-methoxypropan-2-yl)-2-methyl-1H-pyrrolo[2,3-b]pyridine-3-carboxamide] | – | – | – | 0.4 to 2 | < 0.1 | 0.1 to 1 | –
5 | COc1cc(C)[nH]c(=O)c1CNC(=O)c1c(C)n(C(C)C(OC)C2CC2)c2ncccc12 (stereo not drawn) [Compound 283, 1-(1-cyclopropyl-1-methoxypropan-2-yl)-N-((4-methoxy-6-methyl-2-oxo-1,2-dihydropyridin-3-yl)methyl)-2-methyl-1H-pyrrolo[2,3-b]pyridine-3-carboxamide] | – | – | – | 0.4 to 2 | < 0.1 | 0.1 to 1 | –
6 | Cc1cc(C)c(CNC(=O)c2c(C)n(S(=O)(=O)c3ccccc3)c3ccccc23)c(O)n1 [Compound 145, N-((4,6-dimethyl-2-oxo-1,2-dihydropyridin-3-yl)methyl)-2-methyl-1-(phenylsulfonyl)-1H-indole-3-carboxamide] | – | < 0.1 | 0.1 to 1 | 2 to 10 | – | – | –
7 | COC(C)C(C)n1c(C)c(C(=O)NCc2c(C)cc(C)[nH]c2=O)c2cccnc21 (stereo not drawn) [Compound 241, N-((4,6-dimethyl-2-oxo-1,2-dihydropyridin-3-yl)methyl)-1-(3-methoxybutan-2-yl)-2-methyl-1H-pyrrolo[2,3-b]pyridine-3-carboxamide] | – | – | – | 0.4 to 2 | < 0.1 | 0.1 to 1 | –
8 | Cc1cc(C)c(CNC(=O)c2c(C)n(C(C)c3ccccc3)c3ncccc23)c(O)n1 (racemic) [Compound 146, N-((2-hydroxy-4,6-dimethylpyridin-3-yl)methyl)-2-methyl-1-(1-phenylethyl)-1H-pyrrolo[2,3-b]pyridine-3-carboxamide] | – | – | – | 0.4 to 2 | < 0.1 | 0.1 to 1 | –
9 | COc1cc(C)[nH]c(=O)c1CNC(=O)c1c(C)n(C(C)C2CCCNC2)c2ccccc12 (stereo not drawn) [Compound 315, N-((4-methoxy-6-methyl-2-oxo-1,2-dihydropyridin-3-yl)methyl)-2-methyl-1-(1-(piperidin-3-yl)ethyl)-1H-indole-3-carboxamide] | – | – | – | > 10 | < 0.1 | 0.1 to 1 | –
10 | Cc1cc(C)c(CNC(=O)c2c(C)n([C@H](C)c3ccccc3)c3nc(N)ncc23)c(O)n1 [Compound 144, (R)-2-amino-N-((2-hydroxy-4,6-dimethylpyridin-3-yl)methyl)-6-methyl-7-(1-phenylethyl)-7H-pyrrolo[2,3-d]pyrimidine-5-carboxamide] | – | – | – | 2 to 10 | < 0.1 | 0.1 to 1 | –
11 | Cc1cc(C)c(CNC(=O)c2c(C)n(C(C)CS(C)(=O)=O)c3ncccc23)c(=O)[nH]1 (racemic) [Compound 250, (±)-N-((4,6-dimethyl-2-oxo-1,2-dihydropyridin-3-yl)methyl)-2-methyl-1-(1-(methylsulfonyl)propan-2-yl)-1H-pyrrolo[2,3-b]pyridine-3-carboxamide] | 2 to 10 | < 0.1 | 0.1 to 1 | – | – | – | –
12 | COc1cc(C)[nH]c(=O)c1CNC(=O)c1c(C)n(C(C)c2ccccc2)c2cnccc12 (racemic) [Compound 243, (±)-N-((4-methoxy-6-methyl-2-oxo-1,2-dihydropyridin-3-yl)methyl)-2-methyl-1-(1-phenylethyl)-1H-pyrrolo[2,3-c]pyridine-3-carboxamide] | – | – | – | 2 to 10 | < 0.1 | 0.1 to 1 | –
13 | N-((4-methoxy-6-methyl-2-oxo-1,2-dihydropyridin-3-yl)methyl)-2-methyl-1-(1-(1-(methylsulfonyl)piperidin-3-yl)ethyl)-1H-indole-3-carboxamide [Compound 320] | – | < 0.1 | < 0.1 | – | – | – | 0.4 to 2
14 | Cc1cc(C)c(CNC(=O)c2c(C)n(C(C)Cn3cnc4ccccc43)c3ncccc23)c(=O)[nH]1 (racemic) [Compound 238, (±)-1-(1-(1H-benzo[d]imidazol-1-yl)propan-2-yl)-N-((4,6-dimethyl-2-oxo-1,2-dihydropyridin-3-yl)methyl)-2-methyl-1H-pyrrolo[2,3-b]pyridine-3-carboxamide] | 2 to 10 | 0.1 to 1 | 1 to 10 | – | – | – | –
15 | Cc1cc(C)c(CNC(=O)c2c(C)n(C(C)c3cccc(Cl)c3)c3ccccc23)c(=O)[nH]1 (racemic) [Compound 181, (±)-1-(1-(3-chlorophenyl)ethyl)-N-((4,6-dimethyl-2-oxo-1,2-dihydropyridin-3-yl)methyl)-2-methyl-1H-indole-3-carboxamide] | – | – | – | 0.4 to 2 | < 0.1 | < 0.1 | –
16 | COCC(C)n1c(C)c(C(=O)NCc2c(C)cc(C)[nH]c2=O)c2scnc21 (racemic) [Compound 254, (±)-N-((4,6-dimethyl-2-oxo-1,2-dihydropyridin-3-yl)methyl)-4-(1-methoxypropan-2-yl)-5-methyl-4H-pyrrolo[2,3-d]thiazole-6-carboxamide] | 2 to 10 | 0.1 to 1 | 0.1 to 1 | – | – | – | –
17 | COCC(C)n1c(C)c(C(=O)NCc2c(OC)cc(C)[nH]c2=O)c2cccnc21 (racemic) [Compound 204, (±)-N-((4-methoxy-6-methyl-2-oxo-1,2-dihydropyridin-3-yl)methyl)-1-(1-methoxypropan-2-yl)-2-methyl-1H-pyrrolo[2,3-b]pyridine-3-carboxamide] | – | – | – | 0.4 to 2 | < 0.1 | 0.1 to 1 | –
18 | COCC(C)n1c(C)c(C(=O)NCc2c(C)cc(C)[nH]c2=O)c2ccncc21 (racemic) [Compound 240, (±)-N-((4,6-dimethyl-2-oxo-1,2-dihydropyridin-3-yl)methyl)-1-(1-methoxypropan-2-yl)-2-methyl-1H-pyrrolo[2,3-c]pyridine-3-carboxamide] | – | – | – | 2 to 10 | < 0.1 | 0.1 to 1 | –
